# Reference: publication PMC7180572, “5-Alkylamino-N-phenylpyrazine-2-carboxamides: Design, Preparation, and Antimycobacterial Evaluation” (Molecules, 2020)
# Like-named read-outs stand apart in the source and are kept apart here.
# Experiments:
# [1] = test system: Klebsiella pneumoniae ATCC 10031, CCM 4415; assay: Antibacterial microdilution broth method (EUCAST)
# [2] = test system: Staphylococcus aureus spp.aureus ATCC 29213, CCM 4223; assay: Antibacterial microdilution broth method (EUCAST); format: cell-based; conditions: read-out: MIC SA
# [3] = test system: Enterococcus faecalis ATCC 29212, CCM 4224; assay: Antibacterial microdilution broth method (EUCAST); format: cell-based; conditions: read-out: MIC EF
# [4] = test system: Mycobacterium aurum DSM 43999 (ATCC 23366); assay: Microdilution broth, modified Microplate Alamar Blue Assay, whole cell growth inhibition; format: cell-based; conditions: Mycolicibacterium aurum, read-out: MIC Mycobacterium aurum
# HepG2 cells = assay: HepG2 cytotoxicity, CellTiter 96 (MTS) assay; format: cell-based, human; conditions: for IC50: Homo sapiens, HepG2, 24 h, read-out: HepG2 IC50; for SI, selectivity index: IC50 (HepG2)/MIC against Mtb H37Ra (in µM)
# [5] = test system: Candida tropicalis ATCC 750, CCM 8264; assay: Antifungal microdilution broth method (EUCAST); format: cell-based; conditions: read-out: MIC CT
# [6] = test system: Escherichia coli ATCC 25922, CCM 3954; assay: Antibacterial microdilution broth method (EUCAST); format: cell-based; conditions: read-out: MIC EC
# [7] = test system: Acinetobacter baumanii ATCC 19606, DSM 30007; assay: Antibacterial microdilution broth method (EUCAST); format: cell-based; conditions: Acinetobacter baumannii
# [8] = test system: Candida krusei ATCC 6258, CCM 8271; assay: Antifungal microdilution broth method (EUCAST); format: cell-based; conditions: Pichia kudriavzevii, read-out: MIC CK
# [9] = test system: Candida albicans ATCC 24433, CCM 8320; assay: Antifungal microdilution broth method (EUCAST); format: cell-based; conditions: read-out: MIC CA
# [10] = test system: Absidia corymbifera CCM 8077 (Lichtheimia corymbifera); assay: Antifungal microdilution broth method (EUCAST); format: cell-based; conditions: read-out: MIC AC
# [11] = test system: Aspergillus flavus CCM 8363; assay: Antifungal microdilution broth method (EUCAST); format: cell-based; conditions: read-out: MIC AFla
# [12] = test system: Candida parapsilosis ATCC 22019, CCM 8260; assay: Antifungal microdilution broth method (EUCAST); format: cell-based; conditions: Lodderomyces parapsilosis, read-out: MIC CP
# [13] = test system: Staphylococcus aureus methicillin resistant ATCC 43300, CCM 4750; assay: microbe, parasite or virus in culture; format: cell-based; conditions: ATCC 43300 / CCM 4750 / MRSA, read-out: MIC MRSA
# [14] = test system: Aspergillus fumigatus ATCC 204305; assay: Antifungal microdilution broth method (EUCAST); format: cell-based; conditions: read-out: MIC AF
# [15] = test system: Staphylococcus epidermidis ATCC 12228, CCM 4418; assay: Antibacterial microdilution broth method (EUCAST); format: cell-based; conditions: read-out: MIC SE
# [16] = test system: Trichophyton interdigitale ATCC 9533, CCM 8377; assay: Antifungal microdilution broth method (EUCAST); format: cell-based; conditions: read-out: MIC TI
# [17] = test system: Pseudomonas aeruginosa ATCC 27853, CCM 3955; assay: Antibacterial microdilution broth method (EUCAST); format: cell-based; conditions: read-out: MIC PA
# [18] = test system: Mycobacterium tuberculosis H37Ra ITM-M006710 (ATCC 9431); assay: Microdilution broth, modified Microplate Alamar Blue Assay, whole cell growth inhibition; format: cell-based; conditions: Mycobacterium tuberculosis; in vitro, Middlebrook 7H9 broth, resazurin; read-out: MIC Mtb H37Ra
# [19] = test system: Mycobacterium smegmatis DSM 43465 (ATCC 607); assay: as above; format: cell-based; conditions: Mycolicibacterium smegmatis, read-out: MIC Mycobacterium smegmatis
Compound,MIC KP ([1]; 24h),MIC KP ([1]; 48h),MIC ([2]; 24 h),MIC ([2]; 48 h),melting point,MIC ([3]; 24 h),MIC ([3]; 48 h),MIC [4],IC50 (HepG2 cells),MIC ([5]; 24 h),MIC ([5]; 48 h),MIC ([6]; 24 h),MIC ([6]; 48 h),MIC ([7]; 24h),MIC ([7]; 48h),MIC ([8]; 24 h),MIC ([8]; 48 h),MIC ([9]; 24 h),MIC ([9]; 48 h),"MIC ([10]; CCM8077, 24 h)",other results
"CCCCCCNc1cnc(C(=O)Nc2ccc(O)cc2)cn1 [Compound 3d, 5-(Hexylamino)pyrazine-N-(4-hydroxyphenyl)-2-carboxamide]",> 500 µM,> 500 µM,> 500 µM,> 500 µM,157.7 to 161.5 °C,> 500 µM,> 500 µM,≥ 500 µg/mL,58.6 µM,> 500 µM,> 500 µM,> 500 µM,> 500 µM,> 500 µM,> 500 µM,> 500 µM,> 500 µM,> 500 µM,> 500 µM,> 500 µM,"SI, selectivity index (HepG2 cells): 4.71; MIC ([10]; CCM8077, 48 h): > 500 µM; MIC ([11]; CCM8363, 24 h): > 500 µM; MIC ([11]; CCM8363, 48 h): > 500 µM; MIC ([12]; 24 h): > 500 µM; MIC ([12]; 48 h): > 500 µM; MIC ([13]; 24 h): > 500 µM; MIC ([13]; 48 h): > 500 µM; MIC ([14]; ATCC204305, 24 h): > 500 µM; MIC ([14]; ATCC204305, 48 h): > 500 µM; MIC ([15]; 24 h): > 500 µM; MIC ([15]; 48 h): > 500 µM; MIC ([16]; 72 h): > 500 µM; MIC ([16]; 120 h): > 500 µM; MIC ([17]; 72 h): > 500 µM; MIC ([17]; 120 h): > 500 µM; MIC [18]: 3.91 µg/mL; MIC [19]: 250 µg/mL"
CCCCCCCNc1cnc(C(=O)Nc2ccc(O)cc2)cn1 [Compound 3e],> 500 µM,> 500 µM,> 500 µM,> 500 µM,151.4 to 155.4 °C,> 500 µM,> 500 µM,≥ 500 µg/mL,44.8 µM,> 250 µM,> 250 µM,> 500 µM,> 500 µM,> 500 µM,> 500 µM,> 250 µM,> 250 µM,> 250 µM,> 250 µM,> 250 µM,"SI, selectivity index (HepG2 cells): 3.76; MIC ([10]; CCM8077, 48 h): > 250 µM; MIC ([11]; CCM8363, 24 h): > 250 µM; MIC ([11]; CCM8363, 48 h): > 250 µM; MIC ([12]; 24 h): > 250 µM; MIC ([12]; 48 h): > 250 µM; MIC ([13]; 24 h): > 500 µM; MIC ([13]; 48 h): > 500 µM; MIC ([14]; ATCC204305, 24 h): > 250 µM; MIC ([14]; ATCC204305, 48 h): > 250 µM; MIC ([15]; 24 h): > 500 µM; MIC ([15]; 48 h): > 500 µM; MIC ([16]; 72 h): > 250 µM; MIC ([16]; 120 h): > 250 µM; MIC ([17]; 72 h): > 500 µM; MIC ([17]; 120 h): > 500 µM; MIC [18]: 3.91 µg/mL; MIC [19]: 31.2 µg/mL"
"CCCCNc1cnc(C(=O)Nc2ccc(C)cc2)cn1 [Compound 4b, 5-(Butylamino)-N-(p-tolyl)pyrazine-2-carboxamide]",> 125 µM,> 125 µM,> 125 µM,> 125 µM,162.6 to 163.6 °C,> 125 µM,> 125 µM,≥ 250 µg/mL,> 50 µM,> 125 µM,> 125 µM,> 125 µM,> 125 µM,> 125 µM,> 125 µM,> 125 µM,> 125 µM,> 125 µM,> 125 µM,> 125 µM,"MIC ([10]; CCM8077, 48 h): > 125 µM; MIC ([11]; CCM8363, 24 h): > 125 µM; MIC ([11]; CCM8363, 48 h): > 125 µM; MIC ([12]; 24 h): > 125 µM; MIC ([12]; 48 h): > 125 µM; MIC ([13]; 24 h): > 125 µM; MIC ([13]; 48 h): > 125 µM; MIC ([14]; ATCC204305, 24 h): > 125 µM; MIC ([14]; ATCC204305, 48 h): > 125 µM; MIC ([15]; 24 h): > 125 µM; MIC ([15]; 48 h): > 125 µM; MIC ([16]; 72 h): > 125 µM; MIC ([16]; 120 h): > 125 µM; MIC ([17]; 72 h): > 125 µM; MIC ([17]; 120 h): > 125 µM; MIC [18]: ≥ 250 µg/mL; MIC [19]: ≥ 250 µg/mL"
